Test results published in US20080274892A1, “Novel Haloalkylsulfonanilide Derivative, Herbicide, and Method of Use Thereof” (priority 2005, published 2008).

Columns and labels:
[1] = system: transplanted paddy rice plant and Bulrush; experiment: Test Example 5: selectivity between transplanted paddy rice plant and weeds; type: in vivo; conditions: (highest dosage with no phytotoxicity to paddy rice)/(lowest dosage with effective level 4 on Bulrush); rice 3000-100 g/ha, Bulrush 300-10 g/ha; 21 days
Procedure, shortened: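 Transplanted paddy rice was treated at 3000, 1000, 300 and 100 g/ha active ingredient for phytotoxicity, and post-emergence bulrush at 300, 100, 30 and 10 g/ha. Plants were kept in a hothouse for 21 days. Growth inhibition versus untreated control was scored 0–4 (0%, 1–39%, 40–69%, 70–89%, 90–100%).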

[2] = system: barnyard glass; experiment: Test Example 2: herbicidal efficacy on rice paddy weeds post-emergence; type: in vivo, Echinochloa crus-galli; conditions: dosage 1000 g/ha; post-emergence, one leaf stage; 21 days after treatment
Procedure, shortened: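 Plastic pots of 75 cm^2 were filled with clay loam soil and sown with barnyard glass and bulrush seeds, then topped with 75 cm^3 soil containing false pimpernel seeds. The pots were flooded to 5 cm water depth and held in a hot house. Twenty-one days after treatment, herbicidal efficacy was graded against an untreated control.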

[3] = system: bulrush; experiment: Test Example 1: herbicidal efficacy on rice paddy weeds pre-emergence; type: in vivo, Scirpus juncoides; conditions: dosage 1000 g/ha, 21 days
[4] = system: paddy rice plant (cultivar: Nihonbare); experiment: Test Example 3: phytotoxicity test for transplanted paddy rice plant; type: in vivo; conditions: dosage 1000 g/ha; transplanted rice, treated 5 days after transplantation; 21 days after treatment
Procedure, shortened: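 Clay loam soil was placed in a 75 cm^2 plastic pot and flooded to a water depth of 5 cm. Two Nihonbare paddy rice plants at the two-leaf stage were transplanted 1 cm deep and grown in a hot house. After treatment, pots stayed in the hot house for 21 days, and phytotoxicity was then graded against an untreated control.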

[5] = system: bulrush; experiment: Test Example 4: low dosage test for rice paddy weeds; type: in vivo, Scirpus juncoides; conditions: 300 g/ha as an active ingredient; plants treated at the one leaf stage; 21 days after treatment; vs untreated control
Procedure, shortened: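 Bulrush sown in clay loam pots, flooded to 5 cm water in a hot house, treated at the one-leaf stage with formulated compound at 300 g/ha. Efficacy scored 0–4 against untreated control 21 days after treatment (4 = 90–100%, 0 = 0% inhibition).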

[6] = system: false pimpernel; experiment: Test Example 2: herbicidal efficacy on rice paddy weeds post-emergence; type: in vivo, Lindernia pyxidaria; conditions: dosage 1000 g/ha; post-emergence, one leaf stage; 21 days after treatment
[7] = system: bulrush; experiment: as above; type: in vivo, Scirpus juncoides; conditions: dosage 1000 g/ha; post-emergence, one leaf stage; 21 days after treatment
[8] = system: false pimpernel; experiment: Test Example 1: herbicidal efficacy on rice paddy weeds pre-emergence; type: in vivo, Lindernia pyxidaria; conditions: dosage 1000 g/ha, 21 days

CC(C)C1CN(Cc2ccccc2NS(=O)(=O)C(F)(F)F)C(=O)O1 (centres unmarked) [1-31]
Selective Index [1]: ≧10 | Burnyard grass post (herbicidal efficacy grade) [2]: 4 (90%-100% of herbicidal efficacy or phytotoxicity) | Bulrush pre (herbicidal efficacy grade) [3]: 4 (90%-100% of herbicidal efficacy or phytotoxicity) | Phytotoxicity to paddy rice [4]: 1 (1%-39% of herbicidal efficacy or phytotoxicity) | Herbicide effect to Bulrush [5]: 4 (90%-100% of herbicidal efficacy or phytotoxicity) | False pimpernel post (herbicidal efficacy grade) [6]: 4 (90%-100% of herbicidal efficacy or phytotoxicity) | Bulrush post (herbicidal efficacy grade) [7]: 4 (90%-100% of herbicidal efficacy or phytotoxicity) | False pimpernel pre (herbicidal efficacy grade) [8]: 4 (90%-100% of herbicidal efficacy or phytotoxicity)

CC(C)COC(=O)N(c1ccccc1CN1CC(C(C)C)OC1=O)S(=O)(=O)C(F)(F)F (centres unmarked) [1-32]
Selective Index [1]: 10 | Burnyard grass post (herbicidal efficacy grade) [2]: 4 (90%-100% of herbicidal efficacy or phytotoxicity) | Bulrush pre (herbicidal efficacy grade) [3]: 4 (90%-100% of herbicidal efficacy or phytotoxicity) | Phytotoxicity to paddy rice [4]: 0 (0% of herbicidal efficacy or phytotoxicity) | Herbicide effect to Bulrush [5]: 3 (70%-89% of herbicidal efficacy or phytotoxicity) | False pimpernel post (herbicidal efficacy grade) [6]: 4 (90%-100% of herbicidal efficacy or phytotoxicity) | Bulrush post (herbicidal efficacy grade) [7]: 4 (90%-100% of herbicidal efficacy or phytotoxicity) | False pimpernel pre (herbicidal efficacy grade) [8]: 4 (90%-100% of herbicidal efficacy or phytotoxicity)

CC(C)COC(=O)N(c1ccccc1CN1CC(CCl)OC1=O)S(=O)(=O)C(F)(F)F (centres unmarked) [1-40]
Selective Index [1]: 100 | Burnyard grass post (herbicidal efficacy grade) [2]: 4 (90%-100% of herbicidal efficacy or phytotoxicity) | Bulrush pre (herbicidal efficacy grade) [3]: 4 (90%-100% of herbicidal efficacy or phytotoxicity) | Phytotoxicity to paddy rice [4]: 0 (0% of herbicidal efficacy or phytotoxicity) | Herbicide effect to Bulrush [5]: 4 (90%-100% of herbicidal efficacy or phytotoxicity) | False pimpernel post (herbicidal efficacy grade) [6]: 4 (90%-100% of herbicidal efficacy or phytotoxicity) | Bulrush post (herbicidal efficacy grade) [7]: 4 (90%-100% of herbicidal efficacy or phytotoxicity) | False pimpernel pre (herbicidal efficacy grade) [8]: 4 (90%-100% of herbicidal efficacy or phytotoxicity)

CC1(C)CN(Cc2ccccc2NS(=O)(=O)C(F)(F)F)C(=O)O1 [1-43]
Selective Index [1]: 10 | Burnyard grass post (herbicidal efficacy grade) [2]: 4 (90%-100% of herbicidal efficacy or phytotoxicity) | Bulrush pre (herbicidal efficacy grade) [3]: 4 (90%-100% of herbicidal efficacy or phytotoxicity) | Phytotoxicity to paddy rice [4]: 2 (40%-69% of herbicidal efficacy or phytotoxicity) | Herbicide effect to Bulrush [5]: 4 (90%-100% of herbicidal efficacy or phytotoxicity) | False pimpernel post (herbicidal efficacy grade) [6]: 4 (90%-100% of herbicidal efficacy or phytotoxicity) | Bulrush post (herbicidal efficacy grade) [7]: 4 (90%-100% of herbicidal efficacy or phytotoxicity) | False pimpernel pre (herbicidal efficacy grade) [8]: 4 (90%-100% of herbicidal efficacy or phytotoxicity)

CC(C)COC(=O)N(c1ccccc1CN1CC(C)(C)OC1=O)S(=O)(=O)C(F)(F)F [1-44]
Selective Index [1]: 30 | Burnyard grass post (herbicidal efficacy grade) [2]: 4 (90%-100% of herbicidal efficacy or phytotoxicity) | Bulrush pre (herbicidal efficacy grade) [3]: 4 (90%-100% of herbicidal efficacy or phytotoxicity) | Phytotoxicity to paddy rice [4]: 2 (40%-69% of herbicidal efficacy or phytotoxicity) | Herbicide effect to Bulrush [5]: 4 (90%-100% of herbicidal efficacy or phytotoxicity) | False pimpernel post (herbicidal efficacy grade) [6]: 4 (90%-100% of herbicidal efficacy or phytotoxicity) | Bulrush post (herbicidal efficacy grade) [7]: 4 (90%-100% of herbicidal efficacy or phytotoxicity) | False pimpernel pre (herbicidal efficacy grade) [8]: 4 (90%-100% of herbicidal efficacy or phytotoxicity)

CC(C)COC(=O)N(c1ccccc1CN1CC2(CCCCC2)OC1=O)S(=O)(=O)C(F)(F)F [1-46]
Selective Index [1]: 10 | Burnyard grass post (herbicidal efficacy grade) [2]: 4 (90%-100% of herbicidal efficacy or phytotoxicity) | Bulrush pre (herbicidal efficacy grade) [3]: 4 (90%-100% of herbicidal efficacy or phytotoxicity) | Phytotoxicity to paddy rice [4]: 1 (1%-39% of herbicidal efficacy or phytotoxicity) | Herbicide effect to Bulrush [5]: 4 (90%-100% of herbicidal efficacy or phytotoxicity) | False pimpernel post (herbicidal efficacy grade) [6]: 4 (90%-100% of herbicidal efficacy or phytotoxicity) | Bulrush post (herbicidal efficacy grade) [7]: 4 (90%-100% of herbicidal efficacy or phytotoxicity) | False pimpernel pre (herbicidal efficacy grade) [8]: 4 (90%-100% of herbicidal efficacy or phytotoxicity)

CC(C)COC(=O)N(c1ccccc1CN1C(=O)OC2CCCCC21)S(=O)(=O)C(F)(F)F (centres unmarked) [1-48]
Selective Index [1]: 10 | Burnyard grass post (herbicidal efficacy grade) [2]: 4 (90%-100% of herbicidal efficacy or phytotoxicity) | Bulrush pre (herbicidal efficacy grade) [3]: 4 (90%-100% of herbicidal efficacy or phytotoxicity) | Phytotoxicity to paddy rice [4]: 1 (1%-39% of herbicidal efficacy or phytotoxicity) | Herbicide effect to Bulrush [5]: 3 (70%-89% of herbicidal efficacy or phytotoxicity) | False pimpernel post (herbicidal efficacy grade) [6]: 4 (90%-100% of herbicidal efficacy or phytotoxicity) | Bulrush post (herbicidal efficacy grade) [7]: 4 (90%-100% of herbicidal efficacy or phytotoxicity) | False pimpernel pre (herbicidal efficacy grade) [8]: 4 (90%-100% of herbicidal efficacy or phytotoxicity)

CC1(C)CN(Cc2ccccc2NS(=O)(=O)C(F)(F)F)C(=S)O1 [1-49]
Selective Index [1]: 10 | Burnyard grass post (herbicidal efficacy grade) [2]: 4 (90%-100% of herbicidal efficacy or phytotoxicity) | Bulrush pre (herbicidal efficacy grade) [3]: 4 (90%-100% of herbicidal efficacy or phytotoxicity) | Phytotoxicity to paddy rice [4]: 2 (40%-69% of herbicidal efficacy or phytotoxicity) | Herbicide effect to Bulrush [5]: 4 (90%-100% of herbicidal efficacy or phytotoxicity) | False pimpernel post (herbicidal efficacy grade) [6]: 4 (90%-100% of herbicidal efficacy or phytotoxicity) | Bulrush post (herbicidal efficacy grade) [7]: 4 (90%-100% of herbicidal efficacy or phytotoxicity) | False pimpernel pre (herbicidal efficacy grade) [8]: 4 (90%-100% of herbicidal efficacy or phytotoxicity)

CC(C)COC(=O)N(c1ccccc1CN1CC(C)(C)OC1=S)S(=O)(=O)C(F)(F)F [1-50]
Selective Index [1]: 10 | Burnyard grass post (herbicidal efficacy grade) [2]: 4 (90%-100% of herbicidal efficacy or phytotoxicity) | Bulrush pre (herbicidal efficacy grade) [3]: 4 (90%-100% of herbicidal efficacy or phytotoxicity) | Phytotoxicity to paddy rice [4]: 2 (40%-69% of herbicidal efficacy or phytotoxicity) | Herbicide effect to Bulrush [5]: 4 (90%-100% of herbicidal efficacy or phytotoxicity) | False pimpernel post (herbicidal efficacy grade) [6]: 4 (90%-100% of herbicidal efficacy or phytotoxicity) | Bulrush post (herbicidal efficacy grade) [7]: 4 (90%-100% of herbicidal efficacy or phytotoxicity) | False pimpernel pre (herbicidal efficacy grade) [8]: 4 (90%-100% of herbicidal efficacy or phytotoxicity)

CC[C@@H]1CN(Cc2ccccc2NS(=O)(=O)C(F)(F)F)C(=O)O1 [1-57]
Selective Index [1]: 10 | Burnyard grass post (herbicidal efficacy grade) [2]: 4 (90%-100% of herbicidal efficacy or phytotoxicity) | Bulrush pre (herbicidal efficacy grade) [3]: 4 (90%-100% of herbicidal efficacy or phytotoxicity) | Phytotoxicity to paddy rice [4]: 1 (1%-39% of herbicidal efficacy or phytotoxicity) | Herbicide effect to Bulrush [5]: 4 (90%-100% of herbicidal efficacy or phytotoxicity) | False pimpernel post (herbicidal efficacy grade) [6]: 4 (90%-100% of herbicidal efficacy or phytotoxicity) | Bulrush post (herbicidal efficacy grade) [7]: 4 (90%-100% of herbicidal efficacy or phytotoxicity) | False pimpernel pre (herbicidal efficacy grade) [8]: 4 (90%-100% of herbicidal efficacy or phytotoxicity)
